Experiments:
[1] = biological target: T1, Acyl-CoA:cholesterol acyltransferase (Oryctolagus cuniculus, UniProt Q95214); assay: Inhibitory activity against acyl-CoA: cholesterol acyltransferase (ACAT) in microsomes from cholesterol-fed rabbit intestinal mucosa
T1 sequence (Q95214 whole entry): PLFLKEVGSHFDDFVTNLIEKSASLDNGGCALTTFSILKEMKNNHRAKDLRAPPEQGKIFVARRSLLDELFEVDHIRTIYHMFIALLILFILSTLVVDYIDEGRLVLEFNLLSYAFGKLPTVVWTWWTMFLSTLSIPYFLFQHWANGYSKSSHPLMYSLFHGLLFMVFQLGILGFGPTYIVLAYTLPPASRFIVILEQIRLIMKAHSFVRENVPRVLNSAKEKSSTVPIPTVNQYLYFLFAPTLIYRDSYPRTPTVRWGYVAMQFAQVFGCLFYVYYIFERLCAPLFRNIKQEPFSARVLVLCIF

[2] = biological target: T1, Acyl-CoA:cholesterol acyltransferase; assay: Inhibitory activity against acyl-CoA: cholesterol acyltransferase (ACAT) in microsomes from cholesterol-fed rabbit thoracic aorta
[3] = biological target: T2, Sterol O-acyltransferase 1 (Rattus norvegicus) (UniProt O70536); assay: (§1) Inhibition of microsomal acyl-CoA: cholesterol acyltransferase in the presence of plasma from rats administered orally with 100 mg/kg of the compound; pmoles [14C]-Cholesteryl oleate formed / mg protein / min incubation; format: functional, organism-based; set-up: dose 100 mg/kg
T2 sequence (whole entry): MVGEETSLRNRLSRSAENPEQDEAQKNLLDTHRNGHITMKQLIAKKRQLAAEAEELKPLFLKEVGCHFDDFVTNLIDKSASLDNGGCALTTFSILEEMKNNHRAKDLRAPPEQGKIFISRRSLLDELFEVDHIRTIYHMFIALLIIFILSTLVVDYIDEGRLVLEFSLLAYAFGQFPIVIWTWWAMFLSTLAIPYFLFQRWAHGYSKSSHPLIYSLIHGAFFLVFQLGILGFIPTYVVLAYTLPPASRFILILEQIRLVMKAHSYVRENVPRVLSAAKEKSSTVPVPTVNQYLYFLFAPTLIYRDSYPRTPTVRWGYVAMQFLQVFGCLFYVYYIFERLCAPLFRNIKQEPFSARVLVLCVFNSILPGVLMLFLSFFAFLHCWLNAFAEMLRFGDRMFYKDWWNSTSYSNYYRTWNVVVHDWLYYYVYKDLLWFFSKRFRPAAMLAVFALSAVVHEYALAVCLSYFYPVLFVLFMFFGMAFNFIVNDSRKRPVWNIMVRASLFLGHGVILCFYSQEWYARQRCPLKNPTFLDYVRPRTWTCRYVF

Mus musculus [4] = assay: Effect of single oral administration of 10 mg/kg of compound on phospholipids of hypercholesterolemic mice; format: functional, organism-based; set-up: dose 10 mg/kg
Mus musculus [5] = assay: Effect of single oral administration of 10 mg/kg of compound on triglycerides of hypercholesterolemic mice; format: functional, organism-based; set-up: dose 10 mg/kg
Mus musculus [6] = assay: Effect of single oral administration of 10 mg/kg of compound on cholesterol esters of hypercholesterolemic mice; format: functional, organism-based; set-up: dose 10 mg/kg
Mus musculus [7] = assay: Effect of single oral administration of 10 mg/kg of compound on free cholesterol of hypercholesterolemic mice; format: functional, organism-based; set-up: dose 10 mg/kg
Rattus norvegicus [8] = assay: Effect of single oral administration of 15 mg/kg of compound on phospholipids of hypercholesterolemic rats; format: functional, organism-based; set-up: dose 15 mg/kg
Rattus norvegicus [9] = assay: Effect of single oral administration of 15 mg/kg of compound on cholesterol esters of hypercholesterolemic rats; format: functional, organism-based; set-up: dose 15 mg/kg
Rattus norvegicus [10] = assay: Effect of single oral administration of 15 mg/kg of compound on free cholesterol of hypercholesterolemic rats; format: functional, organism-based; set-up: dose 15 mg/kg
Rattus norvegicus [11] = assay: Effect of single oral administration of 15 mg/kg of compound on triglycerides of hypercholesterolemic rats; format: functional, organism-based; set-up: dose 15 mg/kg
Rattus norvegicus [12] = assay: Effect of single oral administration of 2 mg/kg of compound on cholesterol esters of hypercholesterolemic rats; format: functional, organism-based; set-up: dose 2 mg/kg
Rattus norvegicus [13] = assay: Effect of single oral administration of 2 mg/kg of compound on free cholesterol of hypercholesterolemic rats; format: functional, organism-based; set-up: dose 2 mg/kg
Rattus norvegicus [14] = assay: Effect of single oral administration of 2 mg/kg of compound on phospholipids of hypercholesterolemic rats; format: functional, organism-based; set-up: dose 2 mg/kg
Rattus norvegicus [15] = assay: Effect of single oral administration of 2 mg/kg of compound on triglycerides of hypercholesterolemic rats; format: functional, organism-based; set-up: dose 2 mg/kg
[16] = Ratio of effect of single iv administration of compound at dose 2 mg/kg on liver free cholesterol/cholesterol esters of hypercholesterolemic rats; format: functional
[17] = Ratio of effect of single oral administration of 15 mg/kg of compound on liver free cholesterol/cholesterol esters of hypercholesterolemic rats; format: functional
[18] = Ratio of effect of single iv administration of compound at dose 10 mg/kg on liver free cholesterol/cholesterol esters of hypercholesterolemic mice; format: functional
[19] = biological target: T2, Sterol O-acyltransferase 1 (Rattus norvegicus); assay: as §1; format: organism-based; set-up: dose 100 mg/kg

SMILES: CC(C)c1cccc(C(C)C)c1NC(=O)NCC1(c2ccc(OP(=O)(O)O)cc2)O[C@H](C)[C@@H](C)O1
- IC50 [1]: 1080 nM
- IC50 [2]: 2550 nM
- Activity [3]: 148
- Plasma lipids (Mus musculus [4]): 142 mg/dL
- Plasma lipids (Mus musculus [5]): 71 mg/dL
- Plasma lipids (Mus musculus [6]): 79 mg/dL
- Plasma lipids (Mus musculus [7]): 26 mg/dL
- Plasma lipids (Rattus norvegicus [8]): 84 mg/dL
- Plasma lipids (Rattus norvegicus [9]): 73 mg/dL
- Plasma lipids (Rattus norvegicus [10]): 28 mg/dL
- Plasma lipids (Rattus norvegicus [11]): 98 mg/dL
- Plasma lipids (Rattus norvegicus [12]): 134 mg/dL
- Plasma lipids (Rattus norvegicus [13]): 39 mg/dL
- Plasma lipids (Rattus norvegicus [14]): 138 mg/dL
- Plasma lipids (Rattus norvegicus [15]): 126 mg/dL
- Ratio [16]: 0.188
- Ratio [17]: 0.38
- Ratio [18]: 0.316

SMILES: CC(C)c1cccc(C(C)C)c1NC(=O)NCC1(c2ccccc2)O[C@H](C)[C@@H](C)O1
- IC50 [1]: 27 nM
- IC50 [2]: 24.2 nM
- Activity [19]: 286
- Plasma lipids (Rattus norvegicus [8]): 77 mg/dL
- Plasma lipids (Rattus norvegicus [9]): 57 mg/dL
- Plasma lipids (Rattus norvegicus [10]): 18 mg/dL
- Plasma lipids (Rattus norvegicus [11]): 76 mg/dL

SMILES: CC(C)c1cccc(C(C)C)c1NC(=O)NCC1(c2ccc(O)cc2)O[C@H](C)[C@@H](C)O1
- Plasma lipids (Rattus norvegicus [8]): 96 mg/dL
- Plasma lipids (Rattus norvegicus [9]): 75 mg/dL
- Plasma lipids (Rattus norvegicus [10]): 33 mg/dL
- Plasma lipids (Rattus norvegicus [11]): 126 mg/dL

Reference: ChEMBL document CHEMBL1128773, “Synthesis and pharmacological profile of FCE 28654: A water-soluble and injectable ACAT inhibitor” (Bioorg Med Chem Lett, 1995)
